Values belong to the compound of their own block, whether it stands above or below them.
Target: LRRK2 G2019S enzyme (Homo sapiens (Human), UniProt Q5S007, G2019S)
Assay: LRRK2 G2019S TR-FRET biochemical kinase assay (LRRKtide substrate)
Details: 5 nM LRRK2, 134 μM ATP, 60 minute reaction, 23° C.
How it was run: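 TR-FRET phospho-LRRKtide readout (2 nM antibody, 10 mM EDTA, 60 min) after a 60 min, 23 °C kinase reaction. The reaction used 134 μM ATP and 5 nM enzyme in pH 7.5 Tris/MgCl2/EGTA/DTT buffer, with compound and enzyme-substrate mix preincubated for 20 min beforehand.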

Chain of LRRK2 G2019S enzyme (Q5S007 whole entry G2019S): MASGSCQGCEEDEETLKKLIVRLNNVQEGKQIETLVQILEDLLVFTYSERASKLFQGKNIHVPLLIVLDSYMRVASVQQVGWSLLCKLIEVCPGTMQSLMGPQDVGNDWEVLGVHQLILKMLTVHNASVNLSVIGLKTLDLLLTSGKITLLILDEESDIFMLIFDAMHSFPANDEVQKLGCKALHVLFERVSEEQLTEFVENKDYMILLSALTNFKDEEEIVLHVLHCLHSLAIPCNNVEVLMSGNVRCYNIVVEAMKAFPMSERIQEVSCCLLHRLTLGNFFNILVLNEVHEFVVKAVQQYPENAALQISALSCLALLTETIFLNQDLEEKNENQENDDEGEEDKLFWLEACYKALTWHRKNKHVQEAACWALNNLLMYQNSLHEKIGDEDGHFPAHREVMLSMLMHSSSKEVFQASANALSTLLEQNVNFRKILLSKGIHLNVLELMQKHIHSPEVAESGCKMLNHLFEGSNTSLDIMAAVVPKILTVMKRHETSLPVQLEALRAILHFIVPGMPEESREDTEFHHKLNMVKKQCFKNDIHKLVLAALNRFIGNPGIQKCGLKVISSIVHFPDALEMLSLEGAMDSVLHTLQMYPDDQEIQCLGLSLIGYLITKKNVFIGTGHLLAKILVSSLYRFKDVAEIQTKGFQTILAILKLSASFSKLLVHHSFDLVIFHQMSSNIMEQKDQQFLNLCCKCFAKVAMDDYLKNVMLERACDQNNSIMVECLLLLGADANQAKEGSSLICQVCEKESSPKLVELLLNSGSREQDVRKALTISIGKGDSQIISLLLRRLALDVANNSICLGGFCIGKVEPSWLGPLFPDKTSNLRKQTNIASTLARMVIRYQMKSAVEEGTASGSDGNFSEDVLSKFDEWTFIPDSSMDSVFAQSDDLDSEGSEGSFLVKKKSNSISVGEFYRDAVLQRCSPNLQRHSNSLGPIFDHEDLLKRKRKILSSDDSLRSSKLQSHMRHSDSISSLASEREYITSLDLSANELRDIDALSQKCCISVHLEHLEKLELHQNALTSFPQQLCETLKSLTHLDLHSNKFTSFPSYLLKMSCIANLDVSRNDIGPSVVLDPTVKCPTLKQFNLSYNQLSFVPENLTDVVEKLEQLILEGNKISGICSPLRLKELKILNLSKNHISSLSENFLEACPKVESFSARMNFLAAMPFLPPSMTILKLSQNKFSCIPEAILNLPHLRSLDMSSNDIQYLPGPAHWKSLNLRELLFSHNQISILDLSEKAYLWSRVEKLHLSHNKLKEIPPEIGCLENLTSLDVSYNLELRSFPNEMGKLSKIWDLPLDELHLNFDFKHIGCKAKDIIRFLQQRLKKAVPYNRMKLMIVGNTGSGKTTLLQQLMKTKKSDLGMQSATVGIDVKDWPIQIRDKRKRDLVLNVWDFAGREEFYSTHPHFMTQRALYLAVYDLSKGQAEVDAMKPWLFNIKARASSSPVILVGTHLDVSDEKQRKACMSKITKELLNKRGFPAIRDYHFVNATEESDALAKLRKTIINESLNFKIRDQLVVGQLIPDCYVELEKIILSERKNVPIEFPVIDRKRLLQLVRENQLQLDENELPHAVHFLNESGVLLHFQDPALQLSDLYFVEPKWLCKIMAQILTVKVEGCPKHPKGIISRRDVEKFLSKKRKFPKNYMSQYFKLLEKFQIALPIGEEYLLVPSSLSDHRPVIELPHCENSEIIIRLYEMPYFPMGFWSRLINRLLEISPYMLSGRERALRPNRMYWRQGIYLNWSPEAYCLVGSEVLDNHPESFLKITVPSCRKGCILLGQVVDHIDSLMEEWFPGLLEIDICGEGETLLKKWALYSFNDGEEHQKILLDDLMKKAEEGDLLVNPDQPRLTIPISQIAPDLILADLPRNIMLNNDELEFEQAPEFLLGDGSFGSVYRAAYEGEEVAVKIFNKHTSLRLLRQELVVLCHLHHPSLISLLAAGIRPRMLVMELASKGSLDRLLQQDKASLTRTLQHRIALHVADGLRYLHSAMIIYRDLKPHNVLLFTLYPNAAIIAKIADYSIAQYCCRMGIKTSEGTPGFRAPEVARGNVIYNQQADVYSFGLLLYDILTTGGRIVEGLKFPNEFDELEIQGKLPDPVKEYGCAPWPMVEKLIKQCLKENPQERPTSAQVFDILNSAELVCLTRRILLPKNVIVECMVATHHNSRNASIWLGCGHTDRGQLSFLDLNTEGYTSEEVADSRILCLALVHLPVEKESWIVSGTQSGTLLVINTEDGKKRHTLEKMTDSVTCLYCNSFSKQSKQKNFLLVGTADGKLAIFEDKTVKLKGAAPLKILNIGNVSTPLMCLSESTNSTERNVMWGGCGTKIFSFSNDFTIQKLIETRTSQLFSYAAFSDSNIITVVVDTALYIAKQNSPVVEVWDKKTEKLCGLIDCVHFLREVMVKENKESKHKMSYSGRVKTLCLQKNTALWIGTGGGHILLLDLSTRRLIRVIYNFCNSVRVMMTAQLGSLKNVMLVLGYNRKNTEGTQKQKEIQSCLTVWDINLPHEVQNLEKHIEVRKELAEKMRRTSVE

IC50 (Table D-4): < 0.03 µM
Structure (SMILES): CNc1nc(Nc2cn(C(F)(F)C#N)nc2C)ncc1C(F)(F)F [Compound D-13, 2,2-difluoro-2-[3-methyl-4-[[4-(methylamino)-5-(trifluoromethyl)pyrimidin-2-yl]amino]pyrazol-1-yl]acetonitrile]

IC50 (Table D-4): 0.03 to 0.06 µM
Structure (SMILES): CNc1nc(Nc2cnn([C@H]3CCC(n4nccn4)C3)c2C)ncc1C(F)(F)F (stereo partly drawn) [Compounds D-149]

IC50 (Table D-4): 0.03 to 0.06 µM
Structure (SMILES): CNc1nc(Nc2cn([C@H]3CCC(n4ccnn4)C3)nc2C)ncc1C(F)(F)F (stereo partly drawn) [Compounds D-143]

IC50 (Table D-4): < 0.03 µM
Structure (SMILES): CCOc1nc(Nc2cn(C(F)(F)C(N)=O)nc2C)ncc1C(F)(F)F [Compound D-120]

IC50 (Table D-4): < 0.03 µM
Structure (SMILES): COc1nc(Nc2cnn([C@H]3C[C@@H](n4nccn4)C3)c2C)ncc1Br [Compound D-184]

IC50 (Table D-4): < 0.03 µM
Structure (SMILES): COc1nc(Nc2cn(C3(C)CCn4ccnc43)nc2C)ncc1Br [Compound D-178]

IC50 (Table D-4): < 0.03 µM
Structure (SMILES): CNc1nc(Nc2cnn(C3CCC(n4ccnn4)C3)c2C)ncc1C(F)(F)F [Compound D-112]

IC50 (Table D-4): < 0.03 µM
Structure (SMILES): CCNc1nc(Nc2cnn([C@H]3C[C@@H](N4CC[C@@H](F)C4)C3)c2C)ncc1C(F)(F)F [Compound D-198]

IC50 (Table D-4): < 0.03 µM
Structure (SMILES): CCNc1nc(Nc2cn(C3Cc4nccn4C3)nc2C)ncc1C(F)(F)F [Compounds D-102]

IC50 (Table D-4): < 0.03 µM
Structure (SMILES): CCNc1nc(Nc2cnn([C@H]3C[C@@H](N4CCN(C)CC4)C3)c2C)ncc1C(F)(F)F [Compound D-194]

IC50 (Table D-4): < 0.03 µM
Structure (SMILES): CNc1nc(Nc2cn([C@H]3C[C@H](COC(F)F)C3)nc2C)ncc1C(F)(F)F [Compound D-32, trans-N2-[1-[3-(difluoromethoxymethyl)cyclobutyl]-3-methyl-pyrazol-4-yl]-5-(difluoromethyl-fluoranyl)-N4-methyl-pyrimidine-2,4-diamine]

IC50 (Table D-4): < 0.03 µM
Structure (SMILES): CNc1nc(Nc2cn(C3CCn4ccnc43)nc2C)ncc1C(F)(F)F (single isomer, unassigned) [Compound D-4, N2-[1-[6,7-dihydro-5H-pyrrolo[1,2-a]imidazol-7-yl]-3-methyl-1H-pyrazol-4-yl]-N4-methyl-5-(trifluoromethyl)pyrimidine-2,4-diamine]

IC50 (Table D-4): < 0.03 µM
Structure (SMILES): CNc1nc(Nc2cnn([C@@](C)(C#N)CF)c2C)ncc1C(F)(F)F [Compounds D-191]

IC50 (Table D-4): < 0.03 µM
Structure (SMILES): CCNc1nc(Nc2cnn([C@H]3C[C@H](N4CCN(C)CC4)C3)c2C)ncc1C(F)(F)F [Compound D-187]

IC50 (Table D-4): < 0.03 µM
Structure (SMILES): CCNc1nc(Nc2cn(C(F)(F)C(=O)NC3CC3)nc2C)ncc1C(F)(F)F [Compound D-140]

IC50 (Table D-4): < 0.03 µM
Structure (SMILES): CCNc1nc(Nc2cn(C(C)COC(F)F)nc2C)ncc1C(F)(F)F [Compound D-80]

IC50 (Table D-4): < 0.03 µM
Structure (SMILES): CCNc1nc(Nc2cn([C@H]3C[C@H](c4cocn4)C3)nc2C)ncc1C(F)(F)F [Compound D-66]

IC50 (Table D-4): > 0.06 µM
Structure (SMILES): CNc1nc(Nc2cnn(C3CCCn4ccnc43)c2C)ncc1C(F)(F)F [Compound D-169]

IC50 (Table D-4): < 0.03 µM
Structure (SMILES): Cc1c(Nc2ncc(C(F)(F)F)c(NC3CC3)n2)cnn1[C@H]1C[C@H](n2nccn2)C1 [Compound D-119]

IC50 (Table D-4): < 0.03 µM
Structure (SMILES): CNc1nc(Nc2cn([C@H]3C[C@H](n4cccn4)C3)nc2C)ncc1C(F)(F)F [Compound D-94]

IC50 (Table D-4): > 0.06 µM
Structure (SMILES): CCNc1nc(Nc2cnn([C@@]3(C)CCn4ccnc43)c2C)ncc1C(F)(F)F [Compounds D-205]

IC50 (Table D-4): > 0.06 µM
Structure (SMILES): CCSc1nc(Nc2cn(C(C)(C)C#N)nc2C)ncc1C#N [Compound D-47, 2-[[1-(1-cyano-1-methyl-ethyl)-3-methyl-pyrazol-4-yl]amino]-4-ethylsulfanyl-pyrimidine-5-carbonitrile]

IC50 (Table D-4): < 0.03 µM
Structure (SMILES): CCNc1nc(Nc2cnn([C@]3(C)CCn4ccnc43)c2C)ncc1C(F)(F)F [Compounds D-206]

IC50 (Table D-4): > 0.06 µM
Structure (SMILES): CNc1nc(Nc2cn(C3CCn4ccnc43)nc2C)ncc1C(F)(F)F (single isomer, unassigned) [Compound D-3, N2-[1-[6,7-dihydro-5H-pyrrolo[1,2-a]imidazol-7-yl]-3-methyl-1H-pyrazol-4-yl]-N4-methyl-5-(trifluoromethyl)pyrimidine-2,4-diamine]

IC50 (Table D-4): > 0.06 µM
Structure (SMILES): CNc1nc(Nc2cn(C3CCCc4c3cnn4C)nc2C)ncc1C(F)(F)F [Compound D-95]

IC50 (Table D-4): < 0.03 µM
Structure (SMILES): COc1nc(Nc2cnn([C@H]3C[C@H](n4nccn4)C3)c2C)ncc1Cl [Compound D-186]

IC50 (Table D-4): < 0.03 µM
Structure (SMILES): CCNc1nc(Nc2cn(C(F)(F)C(=O)NC)nc2C)ncc1C(F)(F)F [Compound D-100]

IC50 (Table D-4): < 0.03 µM
Structure (SMILES): CNc1nc(Nc2cnn([C@H]3C[C@H](COC(F)F)C3)c2C)ncc1C(F)(F)F [Compound D-31, trans-N2-[1-[3-(difluoromethoxymethyl)cyclobutyl]-5-methyl-pyrazol-4-yl]-5-(difluoromethyl-fluoranyl)-N4-methyl-pyrimidine-2,4-diamine]

IC50 (Table D-4): < 0.03 µM
Structure (SMILES): CCNc1nc(Nc2cnn([C@H]3C[C@H](n4cccn4)C3)c2C)ncc1C(F)(F)F [Compound D-98]

Further lines, the compound ahead of its results:

Structure (SMILES): Cc1nn([C@]2(C)CCNC2=O)cc1Nc1ncc(C(F)(F)F)c(C2CC2)n1 [Compounds A-95]
IC50 (Table A-2): < 0.03 µM

Structure (SMILES): Cc1nn([C@H]2CCNC2=O)cc1Nc1ncc(C(F)(F)F)c(C2CC2)n1 [Compounds A-86]
IC50 (Table A-2): < 0.03 µM

Structure (SMILES): Cc1nn(C(CF)CF)cc1Nc1nc(C2CC2)c2cc[nH]c2n1 [Compound C-30]
IC50 (Table C-2): < 0.05 µM

Structure (SMILES): Cc1c(Nc2nc(C3CC3)c3nc[nH]c3n2)cnn1C1CC2CC2C1 (stereo not drawn) [Compound C-45]
IC50 (Table C-2): < 0.05 µM

Structure (SMILES): Cc1c(Nc2nc(C3CC3)c3c(C#N)c[nH]c3n2)cnn1C1CC2CC2C1 (stereo not drawn) [Compound C-43]
IC50 (Table C-2): < 0.05 µM

Structure (SMILES): Cc1nn([C@@H]2CCn3ccnc32)cc1Nc1ncc(C(F)(F)F)c(C2CC2)n1 (single isomer, unassigned) [Compound A-78]
IC50 (Table A-2): > 0.06 µM

Structure (SMILES): CC1(O)CCCC1n1ncc(Nc2ncc(C(F)(F)F)c(C3CC3)n2)c1Cl (single isomer, unassigned) [Compound A-50, 2-(5-chloro-4-((4-cyclopropyl-5-(trifluoromethyl)pyrimidin-2-yl)amino)-1H-pyrazol-1-yl)-1-methylcyclopentanol]
IC50 (Table A-2): < 0.03 µM

Structure (SMILES): Cc1nn(C2(C)CC2)cc1Nc1nc(C2CC2)c2nc[nH]c2n1 [Compound C-36]
IC50 (Table C-2): < 0.05 µM

Structure (SMILES): Cc1nn([C@H]2CCn3ccnc32)cc1Nc1ncc(C(F)(F)F)c(C2CC2)n1 (single isomer, unassigned) [Compound A-79]
IC50 (Table A-2): < 0.03 µM

Structure (SMILES): CNc1nc(Nc2cn(C)nc2C)nc2[nH]cc(Cl)c12 [Compound B-4, 5-chloro-N^2-(1,3-dimethyl-1H-pyrazol-4-yl)-N^4-methyl-7H-pyrrolo[2,3-d]pyrimidine-2,4-diamine]
IC50 (Table B-2): 0.002 to 0.02 µM

Structure (SMILES): Cc1c(Nc2ncc(C(F)(F)F)c(C3CC3)n2)cnn1C(CF)CF [Compound A-28, 4-cyclopropyl-N-[1-[2-fluoro-1-(fluoromethyl)ethyl]-5-methyl-pyrazol-4-yl]-5-(trifluoromethyl)pyrimidin-2-amine]
IC50 (Table A-2): < 0.03 µM

Structure (SMILES): Cc1c(Nc2nc(C3CC3)c3c(C#N)c[nH]c3n2)cnn1C [Compound C-18, 4-cyclopropyl-2-[(1,5-dimethylpyrazol-4-yl)amino]-7H-pyrrolo[2,3-d]pyrimidine-5-carbonitrile]
IC50 (Table C-2): < 0.05 µM

Structure (SMILES): Cc1nn(C(CF)CF)cc1Nc1ncc(Cl)c(C2CC2)n1 [Compound A-44, 5-chloro-4-cyclopropyl-N-[1-[2-fluoro-1-(fluoromethyl)ethyl]-3-methyl-pyrazol-4-yl]pyrimidin-2-amine]
IC50 (Table A-2): < 0.03 µM

Structure (SMILES): Cc1nn(C(C)(C)C#N)cc1Nc1ncc(C(F)(F)F)c(C2(F)CC2)n1 [Compound A-38, 2-(4-((4-(1-fluorocyclopropyl)-5-(trifluoromethyl)pyrimidin-2-yl)amino)-3-methyl-1H-pyrazol-1-yl)-2-methylpropanenitrile]
IC50 (Table A-2): > 0.06 µM

Structure (SMILES): CCN1CC(n2cc(Nc3ncc(C(F)(F)F)c(C4CC4)n3)c(C)n2)CCC1=O (single isomer, unassigned) [Compound A-62]
IC50 (Table A-2): > 0.06 µM

Structure (SMILES): CC(=O)N1CCC(n2ncc(Nc3ncc(C(F)(F)F)c(C4CC4)n3)c2C)CC1 [Compound A-20, 1-[4-[4-[[4-cyclopropyl-5-(trifluoromethyl)pyrimidin-2-yl]amino]-5-methyl-pyrazol-1-yl]-1-piperidyl]ethanone]
IC50 (Table A-2): < 0.03 µM

Structure (SMILES): Cc1nn(C(C)(C)c2cn(C)cn2)cc1Nc1ncc(C(F)(F)F)c(C2CC2)n1 [Compound A-56, 4-cyclopropyl-N-(3-methyl-1-(2-(1-methyl-1H-imidazol-4-yl)propan-2-yl)-1H-pyrazol-4-yl)-5-(trifluoromethyl)pyrimidin-2-amine]
IC50 (Table A-2): < 0.03 µM

Structure (SMILES): COc1nc(Nc2cn(C(C)(C)C#N)nc2C)nc2[nH]cc(C(F)(F)F)c12 [Compound B-14, 2-(4-((4-methoxy-5-(trifluoromethyl)-7H-pyrrolo[2,3-d]pyrimidin-2-yl)amino)-3-methyl-1H-pyrazol-1-yl)-2-methylpropanenitrile]
IC50 (Table B-2): 0.002 to 0.02 µM

Structure (SMILES): Cc1c(Nc2nc(C3CC3)c3cc[nH]c3n2)cnn1C(CF)CF [Compound C-31]
IC50 (Table C-2): < 0.05 µM

Structure (SMILES): Cc1nn(C2CCC(=O)N(C)C2)cc1Nc1ncc(C(F)(F)F)c(C2CC2)n1 (stereo not drawn) [Compound A-27, 5-(4-((4-cyclopropyl-5-(trifluoromethyl)pyrimidin-2-yl)amino)-3-methyl-1H-pyrazol-1-yl)-1-methylpiperidin-2-one]
IC50 (Table A-2): > 0.06 µM

Structure (SMILES): F[C@H]1CN(C2COC2)CC[C@@H]1n1ncc(Nc2ncc(C(F)(F)F)c(C3CC3)n2)c1Cl [Compound A-48, N-(5-chloro-1-((3S,4S)-3-fluoro-1-(oxetan-3-yl)piperidin-4-yl)-1H-pyrazol-4-yl)-4-cyclopropyl-5-(trifluoromethyl)pyrimidin-2-amine]
IC50 (Table A-2): < 0.03 µM

Structure (SMILES): Cc1c(Nc2nc(C3CC3)c3c(C#N)c[nH]c3n2)cnn1CCOC(F)F [Compound C-47]
IC50 (Table C-2): < 0.05 µM

Source: patent publication US11214565B2, “Compound, compositions, and methods” (Denali Therapeutics Inc., priority 2015, dated 2022)
